# Experiments:
# [1] = target: T1, Alpha-2A adrenergic receptor (Homo sapiens, UniProt P08913); experiment: Inhibitory activity against alpha-2A adrenergic receptor by using [3H]MK-912 as radioligand expressed in COS-1 cells; assay type: cell-based
# T1 sequence (P08913 whole entry): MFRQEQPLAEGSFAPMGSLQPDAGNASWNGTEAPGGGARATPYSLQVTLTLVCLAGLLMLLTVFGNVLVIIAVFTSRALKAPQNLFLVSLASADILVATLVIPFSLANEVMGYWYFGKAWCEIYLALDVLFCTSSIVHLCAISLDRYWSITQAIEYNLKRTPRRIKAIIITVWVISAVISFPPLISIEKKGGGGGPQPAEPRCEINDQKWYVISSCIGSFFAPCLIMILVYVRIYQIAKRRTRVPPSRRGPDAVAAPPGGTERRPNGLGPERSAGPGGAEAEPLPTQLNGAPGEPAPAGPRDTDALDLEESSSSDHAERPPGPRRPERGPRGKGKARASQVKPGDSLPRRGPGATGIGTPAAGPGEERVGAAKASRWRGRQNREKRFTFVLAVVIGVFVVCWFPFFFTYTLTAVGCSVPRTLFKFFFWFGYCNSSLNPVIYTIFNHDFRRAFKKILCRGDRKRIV
# [2] = target: T2, Neuropeptide Y receptor type 5 (Homo sapiens, UniProt Q15761); experiment: Inhibitory activity against neuropeptide Y receptor type 5 by using [125I]PYY as radioligand expressed in COS-1 cells; assay type: cell-based
# T2 sequence (Q15761 whole entry): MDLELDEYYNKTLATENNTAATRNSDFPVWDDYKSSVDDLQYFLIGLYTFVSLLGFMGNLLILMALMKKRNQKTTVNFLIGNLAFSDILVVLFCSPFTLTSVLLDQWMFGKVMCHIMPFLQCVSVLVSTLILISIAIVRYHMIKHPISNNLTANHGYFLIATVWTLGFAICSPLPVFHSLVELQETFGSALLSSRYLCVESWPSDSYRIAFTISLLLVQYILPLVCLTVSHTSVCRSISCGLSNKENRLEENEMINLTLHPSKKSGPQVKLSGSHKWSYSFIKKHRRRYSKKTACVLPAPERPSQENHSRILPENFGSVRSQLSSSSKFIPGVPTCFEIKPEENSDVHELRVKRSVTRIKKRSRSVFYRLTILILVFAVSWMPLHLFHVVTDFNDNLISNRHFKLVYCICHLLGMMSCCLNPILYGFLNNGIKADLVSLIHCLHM
# Homo sapiens = species: Homo sapiens; experiment: Selective ratio against Alpha2A adrenergic receptor to that of MCH
# [3] = target: Melanin-concentrating hormone receptor 1 (Homo sapiens, UniProt Q99705); experiment: Inhibitory activity against human CA-MCH-R1 (Melanin-concentrating hormone receptor 1) by using [125I](Phe13,Tyr19)MCH as radioligand expressed in HEK293 cells; assay type: cell-based
# Sequence of Melanin-concentrating hormone receptor 1 (Q99705 whole entry): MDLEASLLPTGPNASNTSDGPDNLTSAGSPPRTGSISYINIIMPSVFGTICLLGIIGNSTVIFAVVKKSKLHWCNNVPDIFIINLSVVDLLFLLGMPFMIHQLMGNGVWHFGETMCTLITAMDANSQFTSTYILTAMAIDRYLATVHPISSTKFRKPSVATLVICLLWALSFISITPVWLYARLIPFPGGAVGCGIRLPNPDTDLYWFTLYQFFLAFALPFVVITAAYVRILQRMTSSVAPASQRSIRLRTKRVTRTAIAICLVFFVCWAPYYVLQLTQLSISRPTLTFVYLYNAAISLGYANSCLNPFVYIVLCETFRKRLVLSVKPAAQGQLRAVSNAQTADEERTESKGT
SMILES,IC50 [1] [nM],IC50 [2] [nM],Selectivity (Homo sapiens),IC50 [3] [nM]
CN(C)c1nc(N[C@H]2CC[C@@H](NC(=O)c3ccc(F)c(F)c3)CC2)nc2ccccc12,260,2700,,
CN(C)c1nc(N[C@H]2CC[C@@H](NC(=O)c3cccc(Br)c3)CC2)nc2ccccc12,63,,11,5.9
CN(C)c1nc(N[C@H]2CC[C@@H](NC(=O)c3ccc(Cl)c(Cl)c3)CC2)nc2ccccc12,47,,9.4,5
CN(C)c1nc(NC2CCC(NC(=O)c3ccc(Br)cc3OC(F)(F)F)CC2)nc2ccccc12 (cis isomer),390,> 1000,2.4,160
CN(C)c1nc(N[C@H]2CC[C@@H](NC(=O)c3cccc([N+](=O)[O-])c3)CC2)nc2ccccc12,97,,14,6.8
CN(C)c1nc(NC2CCN(Cc3ccc(Br)cc3OC(F)(F)F)CC2)nc2ccccc12,520,> 1000,,320
CN(C)c1nc(N[C@H]2CC[C@@H](NC(=O)c3ccccc3F)CC2)nc2ccccc12,,,,170
CN(C)c1nc(N[C@H]2CC[C@@H](NS(=O)(=O)c3ccc(Br)cc3OC(F)(F)F)CC2)nc2ccccc12,57,880,,83
CN(C)c1nc(N[C@H]2CC[C@@H](CNS(=O)(=O)c3ccc(Br)cc3OC(F)(F)F)CC2)nc2ccccc12,130,120,,140
CN(C)c1nc(N[C@H]2CC[C@@H](NC(=O)c3cccc(C#N)c3)CC2)nc2ccccc12,150,,15,10
CN(C)c1nc(N[C@H]2CC[C@@H](NC(=O)c3cccc(F)c3)CC2)nc2ccccc12,130,,14,9.5
CN(C)c1nc(NC2CCC(NCc3ccc(Br)cc3OC(F)(F)F)CC2)nc2ccccc12 (stereo unspecified),170,> 1000,,35
CN(C)c1nc(NC2CCN(S(=O)(=O)c3ccc(Br)cc3OC(F)(F)F)CC2)nc2ccccc12,170,,,250
CN(C)c1nc(NCC2CCC(CNC(=O)c3ccc(Br)cc3OC(F)(F)F)CC2)nc2ccccc12 (stereo unspecified),9.9,470,,1500
CN(C)c1nc(NC2CCC(CNC(=O)c3ccc(Br)cc3OC(F)(F)F)CC2)nc2ccccc12 (cis isomer),570,1800,,79
COc1cc(OC)cc(C(=O)N[C@H]2CC[C@@H](Nc3nc(N(C)C)c4ccccc4n3)CC2)c1,71,,36,2
Cc1cccc(C(=O)N[C@H]2CC[C@@H](Nc3nc(N(C)C)c4ccccc4n3)CC2)c1,110,,24,4.6
CN(Cc1ccc(Br)cc1OC(F)(F)F)CC1CCC(CNc2nc(N(C)C)c3ccccc3n2)CC1 (stereo unspecified),44,> 1000,,5600

# Further molecules by falling IC50 [3], results first:
IC50 [1] [nM],IC50 [2] [nM],Selectivity (Homo sapiens),IC50 [3] [nM],SMILES
34,460,,5800,CN(C)c1nc(NCC2CCC(CN(C)S(=O)(=O)c3ccc(Br)cc3OC(F)(F)F)CC2)nc2ccccc12 (stereo unspecified)
,,,1200,CN(C)c1nc(NC2CCN(C(=O)c3ccc(Br)cc3OC(F)(F)F)CC2)nc2ccccc12
31,560,,960,CN(C)c1nc(NCC2CCC(CNCc3ccc(Br)cc3OC(F)(F)F)CC2)nc2ccccc12 (stereo unspecified)
7.7,2.7,,160,CN(C)c1nc(NC[C@H]2CC[C@H](CNS(=O)(=O)c3ccc(Br)cc3OC(F)(F)F)CC2)nc2ccccc12
200,,5.3,38,CN(C)c1nc(N[C@H]2CC[C@@H](NC(=O)c3ccc(F)c(F)c3F)CC2)nc2ccccc12
60,,4,15,CN(C)c1nc(N[C@H]2CC[C@@H](NC(=O)c3cccc(C(F)(F)F)c3)CC2)nc2ccccc12
150,,16,9.4,CN(C)c1nc(N[C@H]2CC[C@@H](NC(=O)c3ccc(F)cc3)CC2)nc2ccccc12
360,2400,,4.9,CN(C)c1nc(NC2CCC(CNCc3ccc(Br)cc3OC(F)(F)F)CC2)nc2ccccc12 (cis isomer)
76,,17,4.5,CN(C)c1nc(N[C@H]2CC[C@@H](NC(=O)c3cccc(Cl)c3)CC2)nc2ccccc12

# Source: ChEMBL document CHEMBL1142793, “Lead optimization of 4-(dimethylamino)quinazolines, potent and selective antagonists for the melanin-concentrating hormone receptor 1” (Bioorg Med Chem Lett, 2005)
